In this experiment the target is T1, CCR2 receptor (Homo sapiens, UniProt P41597).
T1 construct: expressed in transfected cells
Briefly: compound-induced calcium activity on FLIPR Tetra in HEK-Gqi5 cells stably expressing CCR2. The class given is cell-based. As to the method:
HEK-Gqi5 cells stably expressing CCR2 were cultured in (DMEM high glucose, 10% FBS, 1% PSA, 400 μg/ml geneticin and 50 μg/ml hygromycin. Appropriate positive control chemokines (MCP-1, MIP1A or RANTES) was used as the positive control agonist for screening compound-induced calcium activity assayed on the FLIPR^Tetra. The drug plates were prepared in 384-well microplates using the EP3 and the MultiPROBE robotic liquid handling systems. Compounds were synthesized and tested for CCR2 activity.

Where [1] appears, read: CCR2 receptor, HEK-Gqi5 cells stably expressing CCR2, calcium FLIPR Tetra.
Setting [2] is: CCR2 receptor, HEK-Gqi5 cells stably expressing CCR2, calcium FLIPR Tetra, read-out: IC50.

Structures are written as SMILES. Like-named read-outs stand apart in the source and are kept apart here.

Consider 33 compounds from patent publication US8815915B2, “Benzofuran-2-sulfonamides pyridine derivatives as chemokine receptor modulators” (Allergan, Inc., priority 2012, dated 2014).

T1 sequence (P41597 whole entry): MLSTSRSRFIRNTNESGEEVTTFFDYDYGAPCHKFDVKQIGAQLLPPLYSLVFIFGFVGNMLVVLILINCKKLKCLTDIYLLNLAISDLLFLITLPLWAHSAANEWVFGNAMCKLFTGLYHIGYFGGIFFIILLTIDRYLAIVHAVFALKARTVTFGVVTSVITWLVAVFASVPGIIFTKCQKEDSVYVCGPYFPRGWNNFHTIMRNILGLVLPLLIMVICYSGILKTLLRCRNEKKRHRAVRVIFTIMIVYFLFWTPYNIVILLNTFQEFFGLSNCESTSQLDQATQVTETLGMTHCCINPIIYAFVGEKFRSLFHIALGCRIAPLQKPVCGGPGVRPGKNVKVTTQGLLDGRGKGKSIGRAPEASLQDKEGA

As for `O=S(=O)(Nc1cc(Cl)cnc1SCc1ccccc1)c1cc2ccccc2o1` [Compound 1, N-[2-(benzylthio)-5-chloropyridin-3-yl]-1-benzofuran-2-sulfonamide], under setting [1], the “% ANTAGONISM” value came out at 83%. Further, under setting [2], the IC50 (as a rule, the concentration needed to halve the response being measured) turned out to be 252 nM.
As to `O=S(=O)(Nc1cc(Cl)cnc1[S+]([O-])Cc1ccccc1)c1cc2ccccc2o1` (stereo not drawn) [Compound 2, N-[2-(benzylsulfinyl)-5-chloropyridin-3-yl]-1-benzofuran-2-sulfonamide], under setting [1], the “% ANTAGONISM” value turned out to be 94%. Moreover, the IC50 under setting [2] worked out at 31 nM.
The corresponding values for `O=S(=O)(Cc1ccccc1)c1ncc(Cl)cc1NS(=O)(=O)c1cc2ccccc2o1` [Compound 3, N-[2-(benzylsulfonyl)-5-chloropyridin-3-yl]-1-benzofuran-2-sulfonamide] are 90% and 19 nM.
On to `O=S(=O)(Nc1cc(Cl)cnc1SCc1cccnc1)c1cc2ccccc2o1` [Compound 4, N-{5-chloro-2-[(pyridin-3-ylmethyl)thio]pyridin-3-yl}-1-benzofuran-2-sulfonamide], for which the “% ANTAGONISM” value under setting [1] was 95%. In addition, the half-inhibitory concentration (IC50) under setting [2] was found to be 32 nM.
In the case of `O=S(=O)(Nc1cc(Cl)cnc1[S+]([O-])Cc1cccnc1)c1cc2ccccc2o1` (stereo not drawn) [Compound 5, N-{5-chloro-2-[(pyridin-3-ylmethyl)sulfinyl]pyridin-3-yl}-1-benzofuran-2-sulfonamide], the “% ANTAGONISM” value under setting [1] worked out at 99%. Further, under setting [2], the IC50 was found to be 201 nM.
As for `O=S(=O)(Cc1cccnc1)c1ncc(Cl)cc1NS(=O)(=O)c1cc2ccccc2o1` [Compound 6, N-{5-chloro-2-[(pyridin-3-ylmethyl)sulfonyl]pyridin-3-yl}-1-benzofuran-2-sulfonamide], under setting [1], the “% ANTAGONISM” value came to 84%. The IC50 under setting [2] came to 2140 nM.
Consider `O=S(=O)(Cc1ccc[n+]([O-])c1)c1ncc(Cl)cc1NS(=O)(=O)c1cc2ccccc2o1` [Compound 7, N-(5-chloro-2-{[(1-oxidopyridin-3-yl)methyl]sulfonyl}pyridin-3-yl)-1-benzofuran-2-sulfonamide], for which the “% ANTAGONISM” value under setting [1] is reported as 100%. Further, the IC50 under setting [2] turned out to be 130 nM.
In the case of `O=S(=O)(Nc1cccnc1SCc1ccccc1)c1cc2ccccc2o1` [Compound 8, N-[2-(benzylthio)pyridin-3-yl]-1-benzofuran-2-sulfonamide], the “% ANTAGONISM” value under setting [1] was found to be 80%. Moreover, the IC50 under setting [2] was found to be 3010 nM.
`O=S(=O)(Nc1cccnc1[S+]([O-])Cc1ccccc1)c1cc2ccccc2o1` (stereo not drawn) [Compound 9, N-[2-(benzylsulfinyl)pyridin-3-yl]-1-benzofuran-2-sulfonamide]: the “% ANTAGONISM” value under setting [1] was 100%. The IC50 under setting [2] came out at 27 nM.
In the case of `O=S(=O)(Cc1ccccc1)c1ncccc1NS(=O)(=O)c1cc2ccccc2o1` [Compound 10, N-[2-(benzylsulfonyl)pyridin-3-yl]-1-benzofuran-2-sulfonamide], under setting [1], the “% ANTAGONISM” value is given as 95%. The IC50 under setting [2] stood at 16 nM.
For the compound `Nc1cccc(CSc2ncccc2NS(=O)(=O)c2cc3ccccc3o2)c1` [Compound 11, N-{2-[(3-aminobenzyl)sulfanyl]pyridin-3-yl}-1-benzofuran-2-sulfonamide], the “% ANTAGONISM” value under setting [1] worked out at 99%. The IC50 under setting [2] came out at 102 nM.
As to `Nc1cccc(C[S+]([O-])c2ncccc2NS(=O)(=O)c2cc3ccccc3o2)c1` (stereo not drawn) [Compound 12, N-{2-[(3-aminobenzyl)sulfinyl]pyridin-3-yl}-1-benzofuran-2-sulfonamide], the “% ANTAGONISM” value under setting [1] came out at 100%. Besides, under setting [2], the IC50 was found to be 255 nM.
For `CC(C)(C)OC(=O)Nc1cccc(CS(=O)(=O)c2ncccc2NS(=O)(=O)c2cc3ccccc3o2)c1` [Compound 13, tert-butyl {3-[({3-[(1-benzofuran-2-ylsulfonyl)amino]pyridin-2-yl}sulfonyl)methyl]phenyl}carbamate] the same measures were 102% and 497 nM.
The corresponding values for `Nc1cccc(CS(=O)(=O)c2ncccc2NS(=O)(=O)c2cc3ccccc3o2)c1` [Compound 14, N-{2-[(3-aminobenzyl)sulfonyl]pyridin-3-yl}-1-benzofuran-2-sulfonamide] are 102% and 71 nM.
In the case of `O=S(=O)(Nc1cc(F)cnc1SCc1ccccc1)c1cc2ccccc2o1` [Compound 15, N-[2-(benzylsulfanyl)-5-fluoropyridin-3-yl]-1-benzofuran-2-sulfonamide], the “% ANTAGONISM” value under setting [1] came to 94%. Moreover, the IC50 under setting [2] was 125 nM.
For `O=S(=O)(Nc1cc(F)cnc1[S+]([O-])Cc1ccccc1)c1cc2ccccc2o1` (stereo not drawn) [Compound 16, N-[2-(benzylsulfinyl)-5-fluoropyridin-3-yl]-1-benzofuran-2-sulfonamide], the “% ANTAGONISM” value under setting [1] was 95%. For the same compound, the IC50 under setting [2] was 18 nM.
As for `O=S(=O)(Cc1ccccc1)c1ncc(F)cc1NS(=O)(=O)c1cc2ccccc2o1` [Compound 17, N-[2-(benzylsulfonyl)-5-fluoropyridin-3-yl]-1-benzofuran-2-sulfonamide], under setting [1], the “% ANTAGONISM” value came to 101%. Under setting [2], the IC50 was found to be 43 nM.
`Nc1cccc(CSc2ncc(Cl)cc2NS(=O)(=O)c2cc3ccccc3o2)c1` [Compound 18, Benzofuran-2-sulfonic acid [2-(3-amino-benzylsulfanyl)-5-chloro-pyridin-3-yl]-amide]: the “% ANTAGONISM” value under setting [1] stood at 98%. Moreover, the IC50 under setting [2] came out at 95 nM.
Regarding `Nc1cccc(C[S+]([O-])c2ncc(Cl)cc2NS(=O)(=O)c2cc3ccccc3o2)c1` (stereo not drawn) [Compound 19, N-{2-[(3-aminobenzyl)sulfinyl]-5-chloropyridin-3-yl}-1-benzofuran-2-sulfonamide], the “% ANTAGONISM” value under setting [1] was found to be 97%. Under setting [2], the IC50 was found to be 101 nM.
In the case of `Nc1cccc(CS(=O)(=O)c2ncc(Cl)cc2NS(=O)(=O)c2cc3ccccc3o2)c1` [Compound 20, N-(2-((3-aminobenzyl)sulfonyl)-5-chloropyridin-3-yl)benzofuran-2-sulfonamide], under setting [1], the “% ANTAGONISM” value is reported as 100%. In addition, under setting [2], the IC50 was 142 nM.
As to `Cc1cnc(SCc2ccccc2)c(NS(=O)(=O)c2cc3ccccc3o2)c1` [Compound 21, N-[2-(benzylsulfanyl)-5-methylpyridin-3-yl]-1-benzofuran-2-sulfonamide], the “% ANTAGONISM” value under setting [1] is on record as 80%. The IC50 under setting [2] stood at 194 nM.
As to `Cc1cnc([S+]([O-])Cc2ccccc2)c(NS(=O)(=O)c2cc3ccccc3o2)c1` (stereo not drawn) [Compound 22, N-[2-(benzylsulfinyl)-5-methylpyridin-3-yl]-1-benzofuran-2-sulfonamide], the “% ANTAGONISM” value under setting [1] was determined as 103%. Moreover, the IC50 under setting [2] was 25 nM.
The corresponding values for `Cc1cnc(S(=O)(=O)Cc2ccccc2)c(NS(=O)(=O)c2cc3ccccc3o2)c1` [Compound 23, N-[2-(benzylsulfonyl)-5-methylpyridin-3-yl]-1-benzofuran-2-sulfonamide] are 96% and 12 nM.
Regarding `Cc1ncccc1Oc1ncc(Cl)cc1NS(=O)(=O)c1cc2ccccc2o1` [Compound 24, N-{5-chloro-2-[(2-methylpyridin-3-yl)oxy]pyridin-3-yl}-1-benzofuran-2-sulfonamide], under setting [1], the “% ANTAGONISM” value is reported as 90%. The IC50 under setting [2] stood at 34 nM.
Regarding `COC(=O)c1ccccc1Oc1ncc(Cl)cc1NS(=O)(=O)c1cc2ccccc2o1` [Compound 25, methyl 2-({3-[(1-benzofuran-2-ylsulfonyl)amino]-5-chloropyridin-2-yl}oxy)benzoate], the “% ANTAGONISM” value under setting [1] is 93%. Also, the half-inhibitory concentration (IC50) under setting [2] was determined as 215 nM.
Consider `O=C(O)c1ccccc1Oc1ncc(Cl)cc1NS(=O)(=O)c1cc2ccccc2o1` [Compound 26, 2-({3-[(1-benzofuran-2-ylsulfonyl)amino]-5-chloropyridin-2-yl}oxy)benzoic acid], for which the “% ANTAGONISM” value under setting [1] stood at 97%. Besides, the concentration for half-maximal inhibition (IC50) under setting [2] was 157 nM.
In the case of `O=C1CCN(C(=O)c2ncc(Cl)cc2NS(=O)(=O)c2cc3ccccc3o2)CC1` [Compound 28, N-{5-chloro-2-[(4-oxopiperidin-1-yl)carbonyl]pyridin-3-yl}-1-benzofuran-2-sulfonamide], the IC50 is 24 nM. For the same compound, the “% ANTAGONISM” value under setting [1] is 105%.
As to `O=C(c1ccccc1)c1ncc(Cl)cc1NS(=O)(=O)c1cc2ccccc2o1` [Compound 29, N-[5-chloro-2-(phenylcarbonyl)pyridin-3-yl]-1-benzofuran-2-sulfonamide], under setting [1], the “% ANTAGONISM” value turned out to be 100%. Further, under setting [2], the half-inhibitory concentration (IC50) worked out at 36 nM.
As for `O=S(=O)(Nc1cc(Cl)cnc1S(=O)(=O)c1ccccc1)c1cc2ccccc2o1` [Compound 31, N-[5-chloro-2-(phenylsulfonyl)pyridin-3-yl]-1-benzofuran-2-sulfonamide], the “% ANTAGONISM” value under setting [1] is reported as 105%. Further, under setting [2], the IC50 turned out to be 17 nM.
`O=S(=O)(Nc1cc(Cl)cnc1[S+]([O-])c1ccccc1)c1cc2ccccc2o1` (stereo not drawn) [Compound 32, N-[5-chloro-2-(phenylsulfinyl)pyridin-3-yl]-1-benzofuran-2-sulfonamide]: the “% ANTAGONISM” value under setting [1] came to 99%. Moreover, under setting [2], the half-maximal inhibitory concentration (IC50) is 7 nM.
On to `Cc1ncccc1COc1ncc(Cl)cc1NS(=O)(=O)c1cc2ccccc2o1` [Compound 33, N-{5-chloro-2-[(2-methylpyridin-3-yl)methoxy]pyridin-3-yl}-1-benzofuran-2-sulfonamide], for which the “% ANTAGONISM” value under setting [1] is recorded as 102%. The IC50 under setting [2] was 251 nM.
Take `COC(=O)c1ccccc1CSc1ncc(Cl)cc1NS(=O)(=O)c1cc2ccccc2o1` [Compound 35, methyl 2-[({3-[(1-benzofuran-2-ylsulfonyl)amino]-5-chloropyridin-2-yl}sulfanyl)methyl]benzoate]: under setting [1], the “% ANTAGONISM” value is reported as 91%. Moreover, the IC50 under setting [2] turned out to be 4250 nM.
`O=C(O)c1ccccc1CSc1ncc(Cl)cc1NS(=O)(=O)c1cc2ccccc2o1` [Compound 36, 2-[({3-[(1-benzofuran-2-ylsulfonyl)amino]-5-chloropyridin-2-yl}sulfanyl)methyl]benzoic acid]: the “% ANTAGONISM” value under setting [1] was 97%. Further, the IC50 under setting [2] worked out at 340 nM.
